In patent publication US20160052936A1, “SPIROINDOLINE DERIVATIVES FOR USE AS GONADOTROPIN-RELEASING HORMONE RECEPTOR ANTAGONISTS” (BAYER PHARMA AKTIENGESELLSCHAFT, priority 2013, published 2016) one finds IC50 data, which are given here for 15 compounds.

SMILES strings stand for the structures.

The assay addresses T1, human GnRH receptor (Homo sapiens, UniProt P30968).
T1 construct: host or cells: CHO cells stably expressing human GnRH receptor (line established by Prof. Thomas Gudermann)
T1 sequence (P30968 1-328): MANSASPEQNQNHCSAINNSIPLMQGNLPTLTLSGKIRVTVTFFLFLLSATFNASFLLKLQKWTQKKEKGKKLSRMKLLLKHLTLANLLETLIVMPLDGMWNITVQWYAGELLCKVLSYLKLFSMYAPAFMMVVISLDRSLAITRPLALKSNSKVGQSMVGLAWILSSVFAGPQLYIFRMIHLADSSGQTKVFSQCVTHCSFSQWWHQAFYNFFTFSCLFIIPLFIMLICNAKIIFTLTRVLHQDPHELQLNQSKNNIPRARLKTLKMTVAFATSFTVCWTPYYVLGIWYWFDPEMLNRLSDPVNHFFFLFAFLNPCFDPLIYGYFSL
The experiment in a line: IP-One HTRF assay with buserelin stimulation. It counts as cell-based. As to conditions: CHO cells stably expressing human GnRH receptor; buserelin at EC80; read-out: Potency in IP-One HTRF assay with buserelin (at EC80) stimulation, given as IC50. From the text: By using homogenous time-resolved fluorescence resonance energy transfer (HTRF), the generation of one component of the GnRH-R signalling cascade can be measured. After stimulation of CHO cells stably expressing human GnRH receptor (established by Prof. Thomas Gudermann, currently University of Marburg, Germany; supplied as frozen cell aliquots by Cell Culture Services, Hamburg, Germany) with the EC80 of the GnRH agonist buserelin, Gq protein-coupled receptor signalling cascade is activated resulting in PLC-dependent cleavage of PIP2 to Inositol-1,4,5-triphosphate (IP3) and Diacylglycerol. The second messenger IP3 is degraded intracellularly to myo-inositol. Inhibition of the final degradation step from Inositol-1-phosphate (IP1) to myo-inositol by addition of lithium chloride leads to accumulation of IP1 in the cells. In cell lysates, IP1 can be detected via an antibody-based HTRF detection technology, where IP1 can displace the FRET acceptor IP1-d2 from binding by Terbium-labelled anti-IP1 antibody as donor resulting in a signal decrease. Compounds were tested for their capability of inhibiting GnRH-R activation by buserelin. For all IP-One HTRF® assays reagents of Cisbio Bioassays (IP-One Tb Jumbo kit, #62IPAPEJ; Cisbio Bioassays, Bagnols sur Cèze Cedex, France) were used.
For the assay, frozen cell aliquots were thawed and a cell suspension (3.33×10^6 cells/mL) containing IP1-d2 (dilution 1:40) was prepared and incubated at 37° C. After 1 h 3 μl of the cell suspension were added to 50 nl of a 100-fold concentrated solution of the test compound in DMSO pre-dispensed in a well of a white low-volume 384-well microtiter plate (Greiner Bio-One, Frickenhausen, Germany). […] Plates were incubated for 1 h at 37° C. and 5% carbon dioxide before the cells were lysed by adding 3 μl Terbium-labelled anti-IP1 antibody (1:40) diluted in Conjugate & Lysis buffer as supplied with the kit. After an incubation for 1 h at 22° C. to enable complete cell lysis and antibody binding to free IP1 or IP1-d2, plates were measured in an HTRF reader, e.g. a RUBYstar, PHERAstar (both BMG Labtechnologies, Offenburg, Germany) or a Viewlux (PerkinElmer LAS, Rodgau-Jügesheim, Germany).
From the fluorescence emissions at 665 nm (FRET) and at 620 nm (background signal of Terbium-antibody), the ratio (emission at 665 nm divided by emission at 620 nm) was calculated and the data were normalized (reaction without test compound=0% inhibition; all other assay components except agonist=100% inhibition). On the same microtiter plate, compounds were tested at 10 different concentrations in the range of 20 μM to 1 nM (20 μM, 6.7 μM, 2.2 μM, 0.74 μM, 0.25 μM, 82 nM, 27 nM, 9.2 nM, 3.1 nM and 1 nM; dilution series prepared before the assay at the level of the 100-fold conc. stock solutions by serial 1:3 dilutions in 100% DMSO) in duplicate values for each concentration. By using an in-house software, the IC50 values were calculated by a 4 parameter fit.
Within the meaning of the present invention the antagonist activity is reflected by the ability of a compound of the invention to antagonize human GnRH receptor stimulation in IP-One HTRF® assay at least three times the standard deviation over the background level.
For orientation: IC50 means the concentration that inhibits the measured activity by half. Take `O=C(NCc1ncc(C(F)(F)F)cc1Cl)c1ccc2c(c1)C1(CC[S+]([O-])CC1)C(C1CC1)N2S(=O)(=O)c1ccc(F)cc1` (mixture of isomers) [Example 2, N-{[3-chloro-5-(trifluoromethyl)pyridin-2-yl]methyl}-2-cyclopropyl-1-[(4-fluorophenyl)sulfonyl]-1,2,2′,3′,5′,6′-hexahydrospiro[indole-3,4′-thiopyran]-5-carboxamide 1′-oxide]: the IC50 was determined as 0.027 µM. With `O=C(NCc1ncc(C(F)(F)F)cc1F)c1ccc2c(c1)C1(CCS(=O)(=O)CC1)C(C1CC1)N2S(=O)(=O)c1ccc(F)cc1` (racemic) [Example 1, 2-cyclopropyl-1-[(4-fluorophenyl)sulfonyl]-N-{[3-fluoro-5-(trifluoromethyl)pyridin-2-yl]methyl}-1,2,2′,3′,5′,6′-hexahydrospiro[indole-3,4′-thiopyran]-5-carboxamide 1′,1′-dioxide] the figure was 0.42 µM; with `O=C(NCc1ncc(C(F)(F)F)cc1Cl)c1ccc2c(c1)C1(CCS(=O)(=O)CC1)C(C1CC1)N2S(=O)(=O)c1ccc(F)cc1` (racemic) [Example 3, N-{[3-chloro-5-(trifluoromethyl)pyridin-2-yl]methyl}-2-cyclopropyl-1-[(4-fluorophenyl)sulfonyl]-1,2,2′,3′,5′,6′-hexahydrospiro[indole-3,4′-thiopyran]-5-carboxamide 1′,1′-dioxide], 0.053 µM; with `O=C(NCc1ncc(Cl)cc1C(F)(F)F)c1ccc2c(c1)C1(CCS(=O)(=O)CC1)C(C1CC1)N2S(=O)(=O)c1ccc(F)cc1` (racemic) [Example 4, N-{[5-chloro-3-(trifluoromethyl)pyridin-2-yl]methyl}-2-cyclopropyl-1-[(4-fluorophenyl)sulfonyl]-1,2,2′,3′,5′,6′-hexahydrospiro[indole-3,4′-thiopyran]-5-carboxamide 1′,1′-dioxide], 0.069 µM. Under `Cc1cnc(CNC(=O)c2ccc3c(c2)C2(CCS(=O)(=O)CC2)C(C2CC2)N3S(=O)(=O)c2ccc(F)cc2)c(C(F)(F)F)c1` (racemic) [Example 5, 2-cyclopropyl-1-[(4-fluorophenyl)sulfonyl]-N-{[5-methyl-3-(trifluoromethyl)pyridin-2-yl]methyl}-1,2,2′,3′,5′,6′-hexahydrospiro[indole-3,4′-thiopyran]-5-carboxamide 1′,1′-dioxide] stands 0.864 µM. For `COc1cccc(S(=O)(=O)N2c3ccc(C(=O)NCc4ncc(C(F)(F)F)cc4F)cc3C3(CCS(=O)(=O)CC3)C2C2CC2)c1` (racemic) [Example 6, 2-cyclopropyl-N-{[3-fluoro-5-(trifluoromethyl)pyridin-2-yl]methyl}-1-[(3-methoxyphenyl)sulfonyl]-1,2,2′,3′,5′,6′-hexahydrospiro[indole-3,4′-thiopyran]-5-carboxamide 1′,1′-dioxide], the 50% inhibitory concentration (IC50) was determined as 0.231 µM. As for `N#Cc1ccc(S(=O)(=O)N2c3ccc(C(=O)NCc4ncc(C(F)(F)F)cc4F)cc3C3(CCS(=O)(=O)CC3)C2C2CC2)cc1` (racemic) [Example 7, 1-[(4-cyanophenyl)sulfonyl]-2-cyclopropyl-N-{[3-fluoro-5-(trifluoromethyl)pyridin-2-yl]methyl}-1,2,2′,3′,5′,6′-hexahydrospiro[indole-3,4′-thiopyran]-5-carboxamide 1′,1′-dioxide], the IC50 worked out at 0.069 µM.

`N#Cc1cccc(S(=O)(=O)N2c3ccc(C(=O)NCc4ncc(C(F)(F)F)cc4F)cc3C3(CCS(=O)(=O)CC3)C2C2CC2)c1` (racemic) [Example 9, 1-[(3-cyanophenyl)sulfonyl]-2-cyclopropyl-N-{[3-fluoro-5-(trifluoromethyl)pyridin-2-yl]methyl}-1,2,2′,3′,5′,6′-hexahydrospiro[indole-3,4′-thiopyran]-5-carboxamide 1′,1′-dioxide]: the IC50 stood at 0.311 µM. As to `N#Cc1cccc(S(=O)(=O)N2c3ccc(C(=O)NCc4ncc(C(F)(F)F)cc4Cl)cc3C3(CCS(=O)(=O)CC3)C2C2CC2)c1` (racemic) [Example 10, N-{[3-chloro-5-(trifluoromethyl)pyridin-2-yl]methyl}-1-[(3-cyanophenyl)sulfonyl]-2-cyclopropyl-1,2,2′,3′,5′,6′-hexahydrospiro[indole-3,4′-thiopyran]-5-carboxamide 1′,1′-dioxide], the IC50 is 0.029 µM. With `O=C(NCc1ncc(C(F)(F)F)cc1F)c1ccc2c(c1)C1(CCS(=O)(=O)CC1)C(C1CC1)N2S(=O)(=O)c1cccc(OC(F)(F)F)c1` (racemic) [Example 11, 2-cyclopropyl-N-{[3-fluoro-5-(trifluoromethyl)pyridin-2-yl]methyl}-1-{[3-(trifluoromethoxy)phenyl]sulfonyl}-1,2,2′,3′,5′,6′-hexahydrospiro[indole-3,4′-thiopyran]-5-carboxamide 1′,1′-dioxide] the figure was 0.76 µM; with `O=C(NCc1ncc(C(F)(F)F)cc1Cl)c1ccc2c(c1)C1(CCS(=O)(=O)CC1)C(C1CC1)N2S(=O)(=O)c1cccc(OC(F)(F)F)c1` (racemic) [Example 12, N-{[3-chloro-5-(trifluoromethyl)pyridin-2-yl]methyl}-2-cyclopropyl-1-{[3-(trifluoromethoxy)phenyl]sulfonyl}-1,2,2′,3′,5′,6′-hexahydrospiro[indole-3,4′-thiopyran]-5-carboxamide 1′,1′-dioxide], 0.219 µM; with `O=C(NCc1ncc(C(F)(F)F)cc1F)c1ccc2c(c1)C1(CCS(=O)(=O)CC1)C(C1CC1)N2S(=O)(=O)c1cccc(OC(F)F)c1` (racemic) [Example 13, 2-cyclopropyl-1-{[3-(difluoromethoxy)phenyl]sulfonyl}-N-{[3-fluoro-5-(trifluoromethyl)pyridin-2-yl]methyl}-1,2,2′,3′,5′,6′-hexahydrospiro[indole-3,4′-thiopyran]-5-carboxamide 1′,1′-dioxide], 0.423 µM. `O=C(NCc1ncc(C(F)(F)F)cc1F)c1ccc2c(c1)C1(CCS(=O)(=O)CC1)C(C1CC1)N2S(=O)(=O)c1ccc(OC(F)F)cc1` (racemic) [Example 15, 2-cyclopropyl-1-{[4-(difluoromethoxy)phenyl]sulfonyl}-N-{[3-fluoro-5-(trifluoromethyl)pyridin-2-yl]methyl}-1,2,2′,3′,5′,6′-hexahydrospiro[indole-3,4′-thiopyran]-5-carboxamide 1′,1′-dioxide]: the IC50 came out at 0.112 µM. Under `O=C(NCc1ncc(C(F)(F)F)cc1Cl)c1ccc2c(c1)C1(CCS(=O)(=O)CC1)C(C1CC1)N2S(=O)(=O)c1ccc(OC(F)F)cc1` (racemic) [Example 16, N-{[3-chloro-5-(trifluoromethyl)pyridin-2-yl]methyl}-2-cyclopropyl-1-{[4-(difluoromethoxy)phenyl]sulfonyl}-1,2,2′,3′,5′,6′-hexahydrospiro[indole-3,4′-thiopyran]-5-carboxamide 1′,1′-dioxide] stands 0.037 µM; under `NC(=O)c1ccc(S(=O)(=O)N2c3ccc(C(=O)NCc4ncc(C(F)(F)F)cc4Cl)cc3C3(CCS(=O)(=O)CC3)C2C2CC2)cc1` (racemic) [Example 17, 1-[(4-carbamoylphenyl)sulfonyl]-N-{[3-chloro-5-(trifluoromethyl)pyridin-2-yl]methyl}-2-cyclopropyl-1,2,2′,3′,5′,6′-hexahydrospiro[indole-3,4′-thiopyran]-5-carboxamide 1′,1′-dioxide], 0.26 µM.
